Results taken from ChEMBL document CHEMBL3885861, “Open TG-GATES”.

Species on record: Rattus norvegicus
Test: Open TG-GATES - Regimen: Single
Type: toxicity, organism-based, Sprague-Dawley
Design: regimen Single, gender Male, age 6 weeks
Details: in vivo, po, 300 mg/kg, route gavage, dose level Low; for APTT / Bas / Eos / Fbg / Hb / Ht / Lym / MCH / MCHC / MCV / Mono / Neu / PT / Plat / RBC / Ret / WBC: tissue Blood; for KIDNEY_L / KIDNEY_R / KIDNEY_TOTAL: tissue Kidney; for LIVER: tissue Liver; for A/G / ALP / ALT / AST / BUN / CRE / Ca / Cl / DBIL / GLC / IP / K / LDH / Na / PL / RALB / TBIL / TC / TG / TP / gamma-GTP: tissue Plasma

For `CCOc1ccc(NC(=O)CC(C)O)cc1` (configuration not stated) [BUCETIN], the TERMINAL_BW (3 h) was 213.6 g, the APTT (3 h) was 15.8 s and the Bas (3 h) was 0%. For the same compound, the Eos (3 h) was 0.8%, the Fbg (3 h) was 292.8 mg/dL and the Hb (3 h) was 13 g/dL. For the same compound, the Ht (3 h) was 39%, the Lym (3 h) was 77.8% and the MCH (3 h) was 21.4 pg. For the same compound, the MCHC (3 h) was 33.3%, the MCV (3 h) was 64.3 fL and the Mono (3 h) was 2.6%. For the same compound, the Neu (3 h) was 18.2%, the PT (3 h) was 13.7 s and the Plat (3 h) was 117.1 x10_4/uL. For the same compound, the RBC (3 h) was 608.2 x10_4/ul, the Ret (3 h) was 8.5% and the WBC (3 h) was 68.4 x10_2/uL. For the same compound, the KIDNEY_L (3 h) was 1 g, the KIDNEY_R (3 h) was 1 g and the KIDNEY_TOTAL (3 h) was 1.9 g. The LIVER (3 h) was 9.6 g, the A/G (3 h) was 0.9 and the ALP (3 h) was 1395.4 IU/L. It also gave an ALT (3 h) of 33.2 IU/L, an AST (3 h) of 66.8 IU/L and a BUN (3 h) of 9.4 mg/dL. The CRE (3 h) was 0.2 mg/dL, the Ca (3 h) was 10.7 mg/dL and the Cl (3 h) was 104.8 meq/L. The DBIL (3 h) was 0.026 mg/dL, the GLC (3 h) was 181 mg/dL and the IP (3 h) was 9.1 mg/dL. The K (3 h) was 4.2 meq/L, the LDH (3 h) was 73.8 IU/L and the Na (3 h) was 140.6 meq/L. It also gave a PL (3 h) of 155.2 mg/dL, an RALB (3 h) of 2.5 g/dL and a TBIL (3 h) of 0.052 mg/dL. The TC (3 h) was 84.4 mg/dL, the TG (3 h) was 78 mg/dL and the TP (3 h) was 5.4 g/dL. For the same compound, the gamma-GTP (3 h) was 1.2 IU/L, the TERMINAL_BW (6 h) was 209.9 g and the APTT (6 h) was 15.2 s. It also gave a Bas (6 h) of 0%, an Eos (6 h) of 1% and a Fbg (6 h) of 292.4 mg/dL. The Hb (6 h) was 13.4 g/dL, the Ht (6 h) was 40.3% and the Lym (6 h) was 77%. It also gave an MCH (6 h) of 20.7 pg, an MCHC (6 h) of 33.4% and an MCV (6 h) of 62 fL. The Mono (6 h) was 2.6%, the Neu (6 h) was 19% and the PT (6 h) was 13.6 s. For the same compound, the Plat (6 h) was 112.6 x10_4/uL, the RBC (6 h) was 649.8 x10_4/ul and the Ret (6 h) was 7.8%. The WBC (6 h) was 80.5 x10_2/uL, the KIDNEY_L (6 h) was 0.9 g and the KIDNEY_R (6 h) was 0.9 g. The KIDNEY_TOTAL (6 h) was 1.8 g, the LIVER (6 h) was 8.7 g and the A/G (6 h) was 0.9. For the same compound, the ALP (6 h) was 1309.2 IU/L, the ALT (6 h) was 29.8 IU/L and the AST (6 h) was 65.8 IU/L. For the same compound, the BUN (6 h) was 8 mg/dL, the CRE (6 h) was 0.2 mg/dL and the Ca (6 h) was 10.6 mg/dL. It also gave a Cl (6 h) of 105 meq/L, a DBIL (6 h) of 0.026 mg/dL and a GLC (6 h) of 186 mg/dL. The IP (6 h) was 10.5 mg/dL, the K (6 h) was 4.3 meq/L and the LDH (6 h) was 74.4 IU/L. For the same compound, the Na (6 h) was 141.8 meq/L, the PL (6 h) was 139.8 mg/dL and the RALB (6 h) was 2.5 g/dL. It also gave a TBIL (6 h) of 0.058 mg/dL, a TC (6 h) of 77 mg/dL and a TG (6 h) of 44.8 mg/dL. It also gave a TP (6 h) of 5.3 g/dL, a gamma-GTP (6 h) of 1.2 IU/L and a TERMINAL_BW (9 h) of 206.6 g. For the same compound, the APTT (9 h) was 18.5 s, the Bas (9 h) was 0% and the Eos (9 h) was 1%. The Fbg (9 h) was 291.8 mg/dL, the Hb (9 h) was 13.1 g/dL and the Ht (9 h) was 39.5%. The Lym (9 h) was 77.2%, the MCH (9 h) was 20.9 pg and the MCHC (9 h) was 33.3%. For the same compound, the MCV (9 h) was 62.8 fL, the Mono (9 h) was 2% and the Neu (9 h) was 19.6%. For the same compound, the PT (9 h) was 14.3 s, the Plat (9 h) was 110.2 x10_4/uL and the RBC (9 h) was 628.8 x10_4/ul. It also gave a Ret (9 h) of 8.1%, a WBC (9 h) of 59.9 x10_2/uL and a KIDNEY_L (9 h) of 0.9 g. It also gave a KIDNEY_R (9 h) of 0.9 g, a KIDNEY_TOTAL (9 h) of 1.9 g and an LIVER (9 h) of 8.1 g. It also gave an A/G (9 h) of 0.9, an ALP (9 h) of 1396.8 IU/L and an ALT (9 h) of 31 IU/L. The AST (9 h) was 68.4 IU/L, the BUN (9 h) was 8.4 mg/dL and the CRE (9 h) was 0.2 mg/dL. It also gave a Ca (9 h) of 10.4 mg/dL, a Cl (9 h) of 107.2 meq/L and a DBIL (9 h) of 0.028 mg/dL. The GLC (9 h) was 182 mg/dL, the IP (9 h) was 10.3 mg/dL and the K (9 h) was 4.3 meq/L. The LDH (9 h) was 68.6 IU/L, the Na (9 h) was 142.8 meq/L and the PL (9 h) was 136.8 mg/dL. For the same compound, the RALB (9 h) was 2.5 g/dL, the TBIL (9 h) was 0.062 mg/dL and the TC (9 h) was 77.2 mg/dL. The TG (9 h) was 29.2 mg/dL, the TP (9 h) was 5.4 g/dL and the gamma-GTP (9 h) was 1.2 IU/L. The TERMINAL_BW (24 h) was 223.3 g, the APTT (24 h) was 19.1 s and the Bas (24 h) was 0%. The Eos (24 h) was 1%, the Fbg (24 h) was 303 mg/dL and the Hb (24 h) was 13.3 g/dL. It also gave a Ht (24 h) of 40%, a Lym (24 h) of 76.8% and an MCH (24 h) of 20.9 pg. For the same compound, the MCHC (24 h) was 33.3%, the MCV (24 h) was 62.9 fL and the Mono (24 h) was 3.4%. It also gave a Neu (24 h) of 18.4%, a PT (24 h) of 14.2 s and a Plat (24 h) of 121.5 x10_4/uL. For the same compound, the RBC (24 h) was 636.4 x10_4/ul, the Ret (24 h) was 7.7% and the WBC (24 h) was 109.1 x10_2/uL. For the same compound, the KIDNEY_L (24 h) was 1 g, the KIDNEY_R (24 h) was 1 g and the KIDNEY_TOTAL (24 h) was 1.9 g. For the same compound, the LIVER (24 h) was 10.8 g, the A/G (24 h) was 0.9 and the ALP (24 h) was 1683.6 IU/L. It also gave an ALT (24 h) of 38.8 IU/L, an AST (24 h) of 67 IU/L and a BUN (24 h) of 15.4 mg/dL. For the same compound, the CRE (24 h) was 0.2 mg/dL, the Ca (24 h) was 11.1 mg/dL and the Cl (24 h) was 104.8 meq/L. The DBIL (24 h) was 0.02 mg/dL, the GLC (24 h) was 176.6 mg/dL and the IP (24 h) was 7.7 mg/dL. It also gave a K (24 h) of 4.1 meq/L, an LDH (24 h) of 62.6 IU/L and a Na (24 h) of 143.8 meq/L. It also gave a PL (24 h) of 171.2 mg/dL, an RALB (24 h) of 2.7 g/dL and a TBIL (24 h) of 0.05 mg/dL. It also gave a TC (24 h) of 89.2 mg/dL, a TG (24 h) of 112.8 mg/dL and a TP (24 h) of 5.7 g/dL. It also gave a gamma-GTP (24 h) of 1 IU/L.
